# Values quoted from earlier work in publication PMC11491004, “CHF6523 data suggest that the phosphoinositide 3-kinase delta isoform is not a suitable target for the management of COPD” (Respiratory Research, 2024).
# Legend:
# airway inflammation = test system: airway inflammation; parameters: method as in ref 12 = [12]; 12. Blomqvist S Andreasson T Arlbrandt S Bold P Bjorhall K Brülls M In vivo dual Pi3kγδ inhibition in a rat model of pulmonary inflammation - evidence of local therapeutic activity Am J Respir Crit Ca; details: cited from earlier work
# sputum IL-6 and IL-8 = test system: sputum IL-6 and IL-8; parameters: method as in PMID 28823947; details: patients with COPD; cited from earlier work
# [1] = test system: sputum IL-5, IL-13, IL-6 or IL-8; parameters: method as in PMID 30217958; details: patients with asthma; cited from earlier work
# PI3Kδ [2] = target: T1, PI3Kδ (Homo sapiens, UniProt O00329); parameters: from tissue; host or cells: induced sputum of COPD patients (in vivo dosing by inhalation); method as in PMID 30886125; details: healthy smokers; cited from earlier work
# PI3Kδ [3] = target: T1, PI3Kδ; parameters: method as in ref 14 = [14]; 14. Wilson R Cahn A Montembault M Green J Musani N Begg M Safety, tolerability, pharmacokinetics (PK) and pharmacodynamics (PD) of single (SD) and repeat (RD) inhaled doses of a novel phosphoinositide; details: healthy volunteer study; Day 12; cited from earlier work
# PI3Kδ [4] = target: T1, PI3Kδ; parameters: from tissue; host or cells: induced sputum of COPD patients (in vivo dosing by inhalation); method as in PMID 36841351; details: activated PI3Kδ syndrome; cited from earlier work
# [5] = parameters: method as in PMID 34113095; details: cited from earlier work
# T1 sequence (O00329 whole entry): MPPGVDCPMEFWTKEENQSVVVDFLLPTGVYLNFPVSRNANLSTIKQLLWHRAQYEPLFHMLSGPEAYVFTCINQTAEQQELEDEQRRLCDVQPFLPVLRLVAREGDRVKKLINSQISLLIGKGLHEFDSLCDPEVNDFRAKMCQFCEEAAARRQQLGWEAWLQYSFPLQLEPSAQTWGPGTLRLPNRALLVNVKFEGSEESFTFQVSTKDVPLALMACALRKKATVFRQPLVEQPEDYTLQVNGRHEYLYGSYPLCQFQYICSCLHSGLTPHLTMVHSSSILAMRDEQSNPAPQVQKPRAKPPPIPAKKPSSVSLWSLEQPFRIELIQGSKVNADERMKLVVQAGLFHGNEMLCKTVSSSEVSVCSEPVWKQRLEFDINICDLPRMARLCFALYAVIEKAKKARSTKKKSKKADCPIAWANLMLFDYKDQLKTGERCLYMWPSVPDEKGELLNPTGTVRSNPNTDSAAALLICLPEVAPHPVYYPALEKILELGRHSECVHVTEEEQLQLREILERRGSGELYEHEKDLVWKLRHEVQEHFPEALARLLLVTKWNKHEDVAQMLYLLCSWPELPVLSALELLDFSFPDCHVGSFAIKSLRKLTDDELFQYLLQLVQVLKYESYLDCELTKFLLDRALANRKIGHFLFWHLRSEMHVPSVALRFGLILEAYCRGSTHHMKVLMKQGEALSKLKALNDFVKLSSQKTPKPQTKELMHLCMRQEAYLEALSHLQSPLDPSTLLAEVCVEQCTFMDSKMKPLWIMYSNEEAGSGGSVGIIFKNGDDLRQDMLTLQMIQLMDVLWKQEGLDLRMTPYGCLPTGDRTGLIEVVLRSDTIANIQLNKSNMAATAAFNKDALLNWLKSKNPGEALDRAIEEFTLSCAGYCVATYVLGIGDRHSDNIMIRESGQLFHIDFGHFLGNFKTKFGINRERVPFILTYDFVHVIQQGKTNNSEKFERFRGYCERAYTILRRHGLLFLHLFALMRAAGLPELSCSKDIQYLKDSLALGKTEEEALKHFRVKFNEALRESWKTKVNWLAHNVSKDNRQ
# T1 sequence (P27986 whole entry partner): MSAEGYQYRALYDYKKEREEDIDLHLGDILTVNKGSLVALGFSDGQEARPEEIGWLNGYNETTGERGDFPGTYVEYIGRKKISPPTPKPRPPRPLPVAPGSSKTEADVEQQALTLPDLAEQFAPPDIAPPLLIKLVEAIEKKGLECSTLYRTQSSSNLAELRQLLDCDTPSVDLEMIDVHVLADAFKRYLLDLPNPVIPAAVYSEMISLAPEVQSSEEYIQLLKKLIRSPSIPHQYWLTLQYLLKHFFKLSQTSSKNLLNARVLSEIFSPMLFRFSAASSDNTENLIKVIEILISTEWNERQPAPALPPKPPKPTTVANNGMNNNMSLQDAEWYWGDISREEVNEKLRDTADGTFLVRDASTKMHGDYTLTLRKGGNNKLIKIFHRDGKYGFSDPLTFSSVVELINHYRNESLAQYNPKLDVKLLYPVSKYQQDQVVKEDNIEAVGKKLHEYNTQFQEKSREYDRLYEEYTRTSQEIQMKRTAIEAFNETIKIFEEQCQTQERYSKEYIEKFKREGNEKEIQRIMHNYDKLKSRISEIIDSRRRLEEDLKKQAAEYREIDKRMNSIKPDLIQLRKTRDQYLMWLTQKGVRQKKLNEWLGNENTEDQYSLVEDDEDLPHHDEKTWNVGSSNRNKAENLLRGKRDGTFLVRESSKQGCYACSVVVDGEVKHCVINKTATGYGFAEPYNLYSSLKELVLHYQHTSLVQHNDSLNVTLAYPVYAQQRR
Structure (SMILES),Efficacy in a rat model of airway inflammation (airway inflammation),Sputum IL-6 and IL-8 levels compared to placebo (sputum IL-6 and IL-8),"Sputum IL-5, IL-13, IL-6 or IL-8 compared to placebo [1]",Target engagement (PI3Kδ [2]),Reduction in PIP3 (PI3Kδ [3]) [%],Changes in target engagement or downstream inflammatory markers in induced sputum (PI3Kδ [4]),"Primary and secondary endpoints ([5]; Phase IIb, patients with exacerbating COPD)",Most common adverse event ([5]; experienced post-inhalation and dose-related)
Cc1nc(Nc2cccc(N3CCCC3=O)n2)sc1-c1cc2c(c(S(C)(=O)=O)c1)C(=O)N([C@@H](C)C1CC1)C2 [AZD8154],demonstrated efficacy,–,–,–,–,–,–,–
CC(C)N1CCN(Cc2cnc(-c3cc(-c4cccc5[nH]ccc45)cc4[nH]ncc34)o2)CC1 [nemiralisib],–,did not significantly reduce,did not yield statistically significant reductions,demonstrated target engagement,35.7,no meaningful changes,neither the primary nor secondary endpoints were met,cough
